# From patent US20240132484A1, “BROAD SPECTRUM ANTIVIRAL COMPOUNDS TARGETING THE SKI COMPLEX” (priority 2020, published 2024)
# “And” between values parts separate entries of the source, which are not always exact repeats. Equal entries are not always repeated. Where two headings read alike, the source gives them in different places.
# Experiments:
# [1] = test system: SARS2; assay type: cell-based, SARS-CoV-2; details: for Infection Data, Average, Mean percentage infection relative to DMSO control: Average of Exp 1 (SMW491) and Exp 2 (SMW492); for Infection Data, Percentage Infection Relative to Appropriate DMSO Control: single well; for Infection Data, Percentage Infection Relative to Appropriate DMSO Control / Infection Data: Percentage Infection Relative to Appropriate DMSO Control: avg background subtraction; for Percentage Inhibition Average 1 μM / Screening data (Relative infection to DMSO controls) Average 1 μM: SARS2, 1 μM; for Screening data (Relative infection to DMSO controls) Average 1 μM / Screening data (Relative infection to DMSO controls) Average 5 μM / Screening data (Relative infection to DMSO controls) Average 10 μM / Screening data (Relative infection to DMSO controls) Average 25 μM / Screening data (Relative infection to DMSO controls) Average 50 μM / Average (relative infection to DMSO over the 5 tested concentrations): 100=DMSO control; for Percentage Inhibition Average 5 μM / Screening data (Relative infection to DMSO controls) Average 5 μM: SARS2, 5 μM; for Percentage Inhibition Average 10 μM / Screening data (Relative infection to DMSO controls) Average 10 μM: SARS2, 10 μM; for Percentage Inhibition Average 25 μM / Screening data (Relative infection to DMSO controls) Average 25 μM: SARS2, 25 μM; for Percentage Inhibition Average 50 μM / Screening data (Relative infection to DMSO controls) Average 50 μM: SARS2, 50 μM; for Average (relative infection to DMSO over the 5 tested concentrations): SARS2, average over 1 to 50 uM; for Infection Data: Percentage Infection Relative to Appropriate DMSO Control: replicate wells; for Infection Data: Average, Mean: average of Exp 1-3 (SMW475, SMW477, SMW478), n 9
# [2] = test system: cells (nuclei count); details: for Relative cell count to DMSO controls, Average 1 μM / Relative cell count to DMSO controls, Average 5 μM / Relative cell count to DMSO controls, Average 10 μM / Relative cell count to DMSO controls, Average 25 μM / Relative cell count to DMSO controls, Average 50 μM: toxicity data, 100=DMSO control; for Toxicity Data, Average, Mean percentage relative to DMSO control: Average of Exp 1 (SMW491) and Exp 2 (SMW492); for Toxicity Data, Percentage Relative to Appropriate DMSO Control: single well; for Relative cell count to DMSO controls, Average (for correlation analysis): average value over the 5 tested concentrations (1 to 50 uM); for Toxicity Data: Average, Mean: average of Exp 1-3 (SMW475, SMW477, SMW478), n 9
smiles,measurement,setting,value
COc1ccc(C2NC(=O)NC(C)=C2C(=O)NCc2ccccc2)cc1OC (stereo not shown) [SILCS48],"Infection Data, Average, Mean percentage infection relative to DMSO control","[1]; n=4, 1 uM",71.69%
same,"Infection Data, Average, Mean percentage infection relative to DMSO control","[1]; n=4, 5 uM",75.19%
same,"Infection Data, Average, Mean percentage infection relative to DMSO control","[1]; n=4, 10 uM",85.09%
same,"Infection Data, Average, Mean percentage infection relative to DMSO control","[1]; n=4, 25 uM",100.34%
same,"Infection Data, Average, Mean percentage infection relative to DMSO control","[1]; n=4, 50 uM",160.04%
same,"Infection Data, Percentage Infection Relative to Appropriate DMSO Control","[1]; Exp 1 (SMW491), 1 uM",87.03% and 82.70%
same,"Infection Data, Percentage Infection Relative to Appropriate DMSO Control","[1]; Exp 1 (SMW491), 5 uM",70.35% and 83.94%
same,"Infection Data, Percentage Infection Relative to Appropriate DMSO Control","[1]; Exp 1 (SMW491), 10 uM",96.64% and 110.53%
same,"Infection Data, Percentage Infection Relative to Appropriate DMSO Control","[1]; Exp 1 (SMW491), 25 uM",102.87% and 119.89%
same,"Infection Data, Percentage Infection Relative to Appropriate DMSO Control","[1]; Exp 1 (SMW491), 50 uM",159.63% and 145.37%
same,"Infection Data, Percentage Infection Relative to Appropriate DMSO Control","[1]; Exp 2 (SMW492), 1 uM",59.24% and 57.80%
same,"Infection Data, Percentage Infection Relative to Appropriate DMSO Control","[1]; Exp 2 (SMW492), 5 uM",84.51% and 61.96%
same,"Infection Data, Percentage Infection Relative to Appropriate DMSO Control","[1]; Exp 2 (SMW492), 10 uM",49.42% and 83.79%
same,"Infection Data, Percentage Infection Relative to Appropriate DMSO Control","[1]; Exp 2 (SMW492), 25 uM",97.57% and 81.03%
same,"Infection Data, Percentage Infection Relative to Appropriate DMSO Control","[1]; Exp 2 (SMW492), 50 uM",177.82% and 157.32%
same,Percentage Inhibition Average 1 μM,[1],28.31%
same,Screening data (Relative infection to DMSO controls) Average 1 μM,[1],71.69
same,Percentage Inhibition Average 5 μM,[1],24.81%
same,Screening data (Relative infection to DMSO controls) Average 5 μM,[1],75.19
same,Percentage Inhibition Average 10 μM,[1],14.91%
same,Screening data (Relative infection to DMSO controls) Average 10 μM,[1],85.09
same,Percentage Inhibition Average 25 μM,[1],−0.34%
same,Screening data (Relative infection to DMSO controls) Average 25 μM,[1],100.34
same,Percentage Inhibition Average 50 μM,[1],−60.04%
same,Screening data (Relative infection to DMSO controls) Average 50 μM,[1],160.04
same,Average (relative infection to DMSO over the 5 tested concentrations),[1],98.47
same,"Relative cell count to DMSO controls, Average 1 μM",[2],119.19
same,"Relative cell count to DMSO controls, Average 5 μM",[2],115.84
same,"Relative cell count to DMSO controls, Average 10 μM",[2],107.43
same,"Relative cell count to DMSO controls, Average 25 μM",[2],102.04
same,"Relative cell count to DMSO controls, Average 50 μM",[2],77.81
same,"Toxicity Data, Average, Mean percentage relative to DMSO control","[2]; n=4, 1 uM",119.19%
same,"Toxicity Data, Average, Mean percentage relative to DMSO control","[2]; n=4, 5 uM",115.84%
same,"Toxicity Data, Average, Mean percentage relative to DMSO control","[2]; n=4, 10 uM",107.43%
same,"Toxicity Data, Average, Mean percentage relative to DMSO control","[2]; n=4, 25 uM",102.04%
same,"Toxicity Data, Average, Mean percentage relative to DMSO control","[2]; n=4, 50 uM",77.81%
same,"Toxicity Data, Percentage Relative to Appropriate DMSO Control","[2]; Exp 1 (SMW491), 1 uM",112% and 102%
same,"Toxicity Data, Percentage Relative to Appropriate DMSO Control","[2]; Exp 1 (SMW491), 5 uM",108% and 106%
same,"Toxicity Data, Percentage Relative to Appropriate DMSO Control","[2]; Exp 1 (SMW491), 10 uM",86% and 88%
same,"Toxicity Data, Percentage Relative to Appropriate DMSO Control","[2]; Exp 1 (SMW491), 25 uM",95% and 88%
same,"Toxicity Data, Percentage Relative to Appropriate DMSO Control","[2]; Exp 1 (SMW491), 50 uM",79% and 77%
same,"Toxicity Data, Percentage Relative to Appropriate DMSO Control","[2]; Exp 2 (SMW492), 1 uM",130% and 132%
same,"Toxicity Data, Percentage Relative to Appropriate DMSO Control","[2]; Exp 2 (SMW492), 5 uM",115% and 135%
same,"Toxicity Data, Percentage Relative to Appropriate DMSO Control","[2]; Exp 2 (SMW492), 10 uM",135% and 121%
same,"Toxicity Data, Percentage Relative to Appropriate DMSO Control","[2]; Exp 2 (SMW492), 25 uM",109% and 116%
same,"Toxicity Data, Percentage Relative to Appropriate DMSO Control","[2]; Exp 2 (SMW492), 50 uM",81% and 75%
same,"Relative cell count to DMSO controls, Average (for correlation analysis)",[2],104.46
Cc1cc(CN(CCN(C)C)Cc2ccco2)sc1Br [SILCS15],Infection Data: Percentage Infection Relative to Appropriate DMSO Control,"[1]; 1 uM, Exp 1 (SMW475)",117.62% and 124.56% and 121.12%
same,Infection Data: Percentage Infection Relative to Appropriate DMSO Control,"[1]; 1 uM, Exp 2 (SMW477)",103.78% and 103.22% and 100.05%
same,Infection Data: Percentage Infection Relative to Appropriate DMSO Control,"[1]; 1 uM, Exp 3 (SMW478)",107.90% and 99.19% and 97.03%
same,"Infection Data: Average, Mean",[1]; 1 uM,108.27%
same,Infection Data: Percentage Infection Relative to Appropriate DMSO Control,"[1]; 5 uM, Exp 1 (SMW475)",131.70% and 141.65% and 132.54%
same,Infection Data: Percentage Infection Relative to Appropriate DMSO Control,"[1]; 5 uM, Exp 2 (SMW477)",102.31% and 90.53% and 98.90%
same,Infection Data: Percentage Infection Relative to Appropriate DMSO Control,"[1]; 5 uM, Exp 3 (SMW478)",98.36% and 110.89% and 93.32%
same,"Infection Data: Average, Mean",[1]; 5 uM,111.13%
same,Infection Data: Percentage Infection Relative to Appropriate DMSO Control,"[1]; 10 uM, Exp 1 (SMW475)",79.51% and 121.98% and 93.64%
same,Infection Data: Percentage Infection Relative to Appropriate DMSO Control,"[1]; 10 uM, Exp 2 (SMW477)",75.81% and 72.41% and 82.10%
same,Infection Data: Percentage Infection Relative to Appropriate DMSO Control,"[1]; 10 uM, Exp 3 (SMW478)",111.15% and 106.59% and 85.32%
same,"Infection Data: Average, Mean",[1]; 10 uM,92.05%
same,Infection Data: Percentage Infection Relative to Appropriate DMSO Control,"[1]; 25 uM, Exp 1 (SMW475)",30.31% and 27.68% and 26.54%
same,Infection Data: Percentage Infection Relative to Appropriate DMSO Control,"[1]; 25 uM, Exp 2 (SMW477)",35.02% and 27.68% and 29.29%
same,Infection Data: Percentage Infection Relative to Appropriate DMSO Control,"[1]; 25 uM, Exp 3 (SMW478)",35.78% and 39.52% and 32.45%
same,"Infection Data: Average, Mean",[1]; 25 uM,31.59%
same,Infection Data: Percentage Infection Relative to Appropriate DMSO Control,"[1]; 50 uM, Exp 1 (SMW475)",23.93% and 15.87% and 20.00%
same,Infection Data: Percentage Infection Relative to Appropriate DMSO Control,"[1]; 50 uM, Exp 2 (SMW477)",18.29% and 18.14% and 19.12%
same,Infection Data: Percentage Infection Relative to Appropriate DMSO Control,"[1]; 50 uM, Exp 3 (SMW478)",20.62% and 25.98% and 33.79%
same,"Infection Data: Average, Mean",[1]; 50 uM,21.75%
same,Percentage Inhibition Average 1 μM,[1],−8.27%
same,Screening data (Relative infection to DMSO controls) Average 1 μM,[1],108.27
same,Percentage Inhibition Average 5 μM,[1],−11.13%
same,Screening data (Relative infection to DMSO controls) Average 5 μM,[1],111.13
same,Percentage Inhibition Average 10 μM,[1],7.95%
same,Screening data (Relative infection to DMSO controls) Average 10 μM,[1],92.05
same,Percentage Inhibition Average 25 μM,[1],68.41%
same,Screening data (Relative infection to DMSO controls) Average 25 μM,[1],31.59
same,Percentage Inhibition Average 50 μM,[1],78.25%
same,Screening data (Relative infection to DMSO controls) Average 50 μM,[1],21.75
same,Average (relative infection to DMSO over the 5 tested concentrations),[1],72.96
same,"Toxicity Data: Average, Mean",[2]; 1 uM,105.96%
same,"Relative cell count to DMSO controls, Average 1 μM",[2],105.96
same,"Toxicity Data: Average, Mean",[2]; 5 uM,104.00%
same,"Relative cell count to DMSO controls, Average 5 μM",[2],104
same,"Toxicity Data: Average, Mean",[2]; 10 uM,107.75%
same,"Relative cell count to DMSO controls, Average 10 μM",[2],107.75
same,"Toxicity Data: Average, Mean",[2]; 25 uM,115.74%
same,"Relative cell count to DMSO controls, Average 25 μM",[2],115.74
same,"Toxicity Data: Average, Mean",[2]; 50 uM,65.19%
same,"Relative cell count to DMSO controls, Average 50 μM",[2],65.19
same,"Relative cell count to DMSO controls, Average (for correlation analysis)",[2],99.73
COc1ccc(C2NC(=O)NC(C)=C2C(=O)NC2CCCCCC2)cc1OC (stereo not shown) [SILCS59],Percentage Inhibition Average 1 μM,[1],29.42%
same,Screening data (Relative infection to DMSO controls) Average 1 μM,[1],70.58
same,Percentage Inhibition Average 5 μM,[1],33.20%
same,Screening data (Relative infection to DMSO controls) Average 5 μM,[1],66.80
same,Percentage Inhibition Average 10 μM,[1],16.88%
same,Screening data (Relative infection to DMSO controls) Average 10 μM,[1],83.12
same,Percentage Inhibition Average 25 μM,[1],−8.59%
same,Screening data (Relative infection to DMSO controls) Average 25 μM,[1],108.59
same,Percentage Inhibition Average 50 μM,[1],−28.37%
same,Screening data (Relative infection to DMSO controls) Average 50 μM,[1],128.37
same,Average (relative infection to DMSO over the 5 tested concentrations),[1],91.49
same,"Relative cell count to DMSO controls, Average 1 μM",[2],115.37
same,"Relative cell count to DMSO controls, Average 5 μM",[2],119.78
same,"Relative cell count to DMSO controls, Average 10 μM",[2],116.3
same,"Relative cell count to DMSO controls, Average 25 μM",[2],100.03
same,"Relative cell count to DMSO controls, Average 50 μM",[2],86.44
same,"Relative cell count to DMSO controls, Average (for correlation analysis)",[2],107.58
